Experimental data published in PubChem BioAssay (NCI).
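Five compound concentrations were applied to cells in 96-well plates for 48 hours; endpoints were derived by simple linear interpolation of the resulting dose-response curve. Abbreviation: GI50, concentration required for 50% inhibition of growth. TGI: concentration producing complete growth inhibition.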

Experiments:
Assay in all cases: growth of human tumour cells (NCI), 48 h
HOP-92 NSCLC = system: HOP-92 NSCLC
PC-3 prostate = system: PC-3 prostate
HCT-116 colon = system: HCT-116 colon
RXF 393 renal = system: RXF 393 renal
OVCAR-3 ovarian = system: OVCAR-3 ovarian
EKVX NSCLC = system: EKVX NSCLC
UACC-257 melanoma = system: UACC-257 melanoma
RPMI-8226 leukemia = system: RPMI-8226 leukemia
COLO 205 colon = system: COLO 205 colon
T-47D breast = system: T-47D breast
HOP-62 NSCLC = system: HOP-62 NSCLC
NCI-H460 lung = system: NCI-H460 lung
SN12C renal = system: SN12C renal
SF-539 CNS = system: SF-539 CNS
NCI/ADR-RES ovarian = system: NCI/ADR-RES ovarian
CCRF-CEM leukemia = system: CCRF-CEM leukemia
HCT-15 colon = system: HCT-15 colon
KM12 colon = system: KM12 colon
A549 NSCLC = system: A549 NSCLC
SK-MEL-28 melanoma = system: SK-MEL-28 melanoma
UACC-62 melanoma = system: UACC-62 melanoma
MDA-MB-435 = system: MDA-MB-435
SW-620 colon = system: SW-620 colon
MOLT-4 leukemia = system: MOLT-4 leukemia
OVCAR-5 ovarian = system: OVCAR-5 ovarian
SNB-75 CNS = system: SNB-75 CNS
SF-295 CNS = system: SF-295 CNS
NCI-H23 lung = system: NCI-H23 lung
HT29 colon = system: HT29 colon
786-0 renal = system: 786-0 renal
NCI-H226 lung = system: NCI-H226 lung
A498 renal = system: A498 renal
SF-268 CNS = system: SF-268 CNS
MALME-3M melanoma = system: MALME-3M melanoma
TK-10 renal = system: TK-10 renal
HS 578T breast = system: HS 578T breast
UO-31 renal = system: UO-31 renal
OVCAR-8 ovarian = system: OVCAR-8 ovarian
MCF7 breast = system: MCF7 breast
ACHN renal = system: ACHN renal
OVCAR-4 ovarian = system: OVCAR-4 ovarian
BT-549 breast = system: BT-549 breast
U251 CNS = system: U251 CNS
MDA-MB-231 breast = system: MDA-MB-231 breast
DU-145 prostate = system: DU-145 prostate
SK-MEL-5 melanoma = system: SK-MEL-5 melanoma
LOX IMVI melanoma = system: LOX IMVI melanoma
HCC-2998 colon = system: HCC-2998 colon
CAKI-1 renal = system: CAKI-1 renal
SK-OV-3 ovarian = system: SK-OV-3 ovarian
NCI-H522 lung = system: NCI-H522 lung
M14 melanoma = system: M14 melanoma
K-562 leukemia = system: K-562 leukemia
IGROV1 ovarian = system: IGROV1 ovarian
SNB-19 CNS = system: SNB-19 CNS
HL-60(TB) leukemia = system: HL-60(TB) leukemia

SMILES: CN1C(=O)C23CC4(C56CC78SSC(CO)(C(=O)N7C5Nc5ccccc56)N(C)C8=O)c5ccccc5NC4N2C(=O)C1(CO)SS3 (configuration not stated)
- GI50 (HOP-92 NSCLC): 103 nM
- TGI (HOP-92 NSCLC): 461 nM
- GI50 (PC-3 prostate): 38.8 nM
- TGI (PC-3 prostate): 537 nM
- GI50 (HCT-116 colon): 32.9 nM
- TGI (HCT-116 colon): 313 nM
- GI50 (RXF 393 renal): 12.9 nM
- TGI (RXF 393 renal): 42 nM
- GI50 (OVCAR-3 ovarian): 50.7 nM
- TGI (OVCAR-3 ovarian): 218 nM
- GI50 (EKVX NSCLC): 89.2 nM
- TGI (EKVX NSCLC): 526 nM
- GI50 (UACC-257 melanoma): 37.2 nM
- TGI (UACC-257 melanoma): 113 nM
- GI50 (RPMI-8226 leukemia): 56.3 nM
- TGI (RPMI-8226 leukemia): 3160 nM
- GI50 (COLO 205 colon): 19.5 nM
- TGI (COLO 205 colon): 76 nM
- GI50 (T-47D breast): 21.3 nM
- TGI (T-47D breast): 135 nM
- GI50 (HOP-62 NSCLC): 124 nM
- TGI (HOP-62 NSCLC): 368 nM
- GI50 (NCI-H460 lung): 52.3 nM
- TGI (NCI-H460 lung): 191 nM
- GI50 (SN12C renal): 124 nM
- TGI (SN12C renal): 673 nM
- GI50 (SF-539 CNS): 29.1 nM
- TGI (SF-539 CNS): 64.9 nM
- GI50 (NCI/ADR-RES ovarian): 48.2 nM
- TGI (NCI/ADR-RES ovarian): 189 nM
- GI50 (CCRF-CEM leukemia): 21.9 nM
- TGI (CCRF-CEM leukemia): 3040 nM
- GI50 (HCT-15 colon): 35.3 nM
- TGI (HCT-15 colon): 411 nM
- GI50 (KM12 colon): 54.4 nM
- TGI (KM12 colon): 220 nM
- GI50 (A549 NSCLC): 48 nM
- TGI (A549 NSCLC): 283 nM
- GI50 (SK-MEL-28 melanoma): 23.5 nM
- TGI (SK-MEL-28 melanoma): 69.5 nM
- GI50 (UACC-62 melanoma): 62.2 nM
- TGI (UACC-62 melanoma): 153 nM
- GI50 (MDA-MB-435): 68.5 nM
- TGI (MDA-MB-435): 146 nM
- GI50 (SW-620 colon): 37.2 nM
- TGI (SW-620 colon): 167 nM
- GI50 (MOLT-4 leukemia): 34.3 nM
- TGI (MOLT-4 leukemia): 3500 nM
- GI50 (OVCAR-5 ovarian): 81.3 nM
- TGI (OVCAR-5 ovarian): 294 nM
- GI50 (SNB-75 CNS): 99.3 nM
- TGI (SNB-75 CNS): 289 nM
- GI50 (SF-295 CNS): 49.7 nM
- TGI (SF-295 CNS): 135 nM
- GI50 (NCI-H23 lung): < 31.5 nM
- TGI (NCI-H23 lung): 76.4 nM
- GI50 (HT29 colon): 17.6 nM
- TGI (HT29 colon): 162 nM
- GI50 (786-0 renal): 78.6 nM
- TGI (786-0 renal): 172 nM
- GI50 (NCI-H226 lung): 130 nM
- TGI (NCI-H226 lung): 359 nM
- GI50 (A498 renal): 74.8 nM
- TGI (A498 renal): 155 nM
- GI50 (SF-268 CNS): 80.7 nM
- TGI (SF-268 CNS): 351 nM
- GI50 (MALME-3M melanoma): 17.7 nM
- TGI (MALME-3M melanoma): 74.5 nM
- GI50 (TK-10 renal): 119 nM
- TGI (TK-10 renal): 359 nM
- GI50 (HS 578T breast): 52.9 nM
- TGI (HS 578T breast): 191 nM
- GI50 (UO-31 renal): 111 nM
- TGI (UO-31 renal): 342 nM
- GI50 (OVCAR-8 ovarian): 23 nM
- TGI (OVCAR-8 ovarian): 185 nM
- GI50 (MCF7 breast): 14.5 nM
- TGI (MCF7 breast): 122 nM
- GI50 (ACHN renal): 71.5 nM
- TGI (ACHN renal): 443 nM
- GI50 (OVCAR-4 ovarian): 57.6 nM
- TGI (OVCAR-4 ovarian): 237 nM
- GI50 (BT-549 breast): 106 nM
- TGI (BT-549 breast): 347 nM
- GI50 (U251 CNS): 46.4 nM
- TGI (U251 CNS): 193 nM
- GI50 (MDA-MB-231 breast): 130 nM
- TGI (MDA-MB-231 breast): 653 nM
- GI50 (DU-145 prostate): 29.6 nM
- TGI (DU-145 prostate): 195 nM
- GI50 (SK-MEL-5 melanoma): 39.3 nM
- TGI (SK-MEL-5 melanoma): 112 nM
- GI50 (LOX IMVI melanoma): 52.1 nM
- TGI (LOX IMVI melanoma): 243 nM
- GI50 (HCC-2998 colon): 46 nM
- TGI (HCC-2998 colon): 132 nM
- GI50 (CAKI-1 renal): 56.1 nM
- TGI (CAKI-1 renal): 290 nM
- GI50 (SK-OV-3 ovarian): 103 nM
- TGI (SK-OV-3 ovarian): 291 nM
- GI50 (NCI-H522 lung): 115 nM
- TGI (NCI-H522 lung): 329 nM
- GI50 (M14 melanoma): 71.7 nM
- TGI (M14 melanoma): 205 nM
- GI50 (K-562 leukemia): 524 nM
- TGI (K-562 leukemia): 3640 nM
- GI50 (IGROV1 ovarian): 98.7 nM
- TGI (IGROV1 ovarian): 279 nM
- GI50 (SNB-19 CNS): 192 nM
- TGI (SNB-19 CNS): 643 nM
- GI50 (HL-60(TB) leukemia): 85.3 nM
- TGI (HL-60(TB) leukemia): 50000 nM
